Read-outs that look alike come from different tables or passages of the source. Square brackets hold non-standard residues; d marks the D form. Ends that are not written are not given here. 1Nal = N[C@@H](Cc1cccc2ccccc12)C(=O)O; d1Nal = N[C@H](Cc1cccc2ccccc12)C(=O)O; Pal = not defined here
Legend:
[1] = tested on: rough mutant E. coli J5 bacteria; test: Radial diffusion bactericidal assay, E. coli J5; assay type: cell-based; settings: radial diffusion; for bactericidal activity (in words): E. coli J5; for pmol added to well to achieve a 30 mm^2 bactericidal zone, E. coli J5: PROBIT analysis, E. coli J5 (rough)
Protocol: BPI proteolytic fragments produced according to Example 1 were screened for bactericidal effects using rough mutant E. coli J5 bacteria in a radial diffusion assay. Specifically, an overnight culture of E. coli J5 was diluted 1:50 into fresh tryptic soy broth and incubated for 3 hours at 37° C. to attain log phase growth of the culture. Bacteria were then pelleted at 3,000 rpm for 5 minutes in a Sorvall RT6000B centrifuge (Sorvall Instruments, Newton, Conn.). 5 mL of 10 mM sodium phosphate buffer (pH 7.4) was added and the preparation was re-pelleted. […] The bacteria were diluted to 4×10^6 CFU/mL in 10 mL of molten underlayer agarose (at approximately 45° C.) and inverted repeatedly to mix in 15 mL polypropylene tubes conventionally used for this purpose.
The entire contents of such tubes were then poured into a level square petri dish and distributed evenly by rocking the dish side-to-side. […] A series of wells were then punched into the hardened agarose using a sterile 3 mm punch attached to a vacuum apparatus. The punch was sterilized with 100% alcohol and allowed to air dry prior to use to avoid contaminating the bacterial culture.
5 or 10 μL of each of the BPI fragments were carefully pipetted into each well. As a negative control, dilution buffer (pH 8.3) was added to a separate well, and rBPI23 at concentrations of 5 μg/mL and 1 μg/mL were also added as positive controls. Each plate was incubated at 37° C. for 3 hours, and then 10 mL of molten overlayer agarose (at approximately 45° C.) was added into the level petri dish, allowed to harden and incubated overnight at 37° C. […] The bacterial zones were measured with a micrometer.

[2] = 3H-heparin binding assay (affinity and capacity); settings: for cpm ^3H-Heparin bound: 100 picomoles of each fragment per well, saturating 3H-heparin 20 μg/mL, mean of duplicate wells ± range; for Heparin Capacity: heparin bound at saturation; for heparin binding capacity: direct heparin binding assay
Protocol: Briefly, each fragment was added to wells of a 96-well microtiter plate having a polyvinylidene difluoride membrane (Immunobilon-P, Millipore, Bedford, Mass.) disposed at the bottom of the wells. […] Positive control wells contained varying amounts of rBPI23. […] DuPont-NEN, Wilmington, Del.) were made in the blocking buffer and incubated in the BPI peptide-containing wells for one hour at 4° C. The unbound heparin was aspirated and the wells were washed three times with blocking buffer, dried and removed for quantitation in a liquid scintillation counter (Model 1217, LKB, Gaithersburg, Md.). Although BSA in the blocking buffer did show a low affinity and capacity to bind heparin, this was considered physiologically irrelevant and the background was routinely subtracted from the test compound signal.

[3] = tested on: E. coli 0111:B4 (smooth) bacteria; test: Radial diffusion bactericidal assay, E. coli 0111:B4; assay type: cell-based; settings: radial diffusion; PROBIT analysis; E. coli O111:B4 (smooth)
Staphylococcus aureus = test: Radial diffusion bactericidal assay, Staphylococcus aureus; assay type: cell-based; settings: radial diffusion; PROBIT analysis; S. aureus
[4] = read-out: Kd of heparin binding

Substance | pmol added to well to achieve a 30 mm^2 bactericidal zone, E. coli O111:B4 [3] | pmol added to well to achieve a 30 mm^2 bactericidal zone, S. aureus (Staphylococcus aureus) | pmol added to well to achieve a 30 mm^2 bactericidal zone, E. coli J5 [1] | Heparin Capacity [2] [ng] | Kd ([2]; read-out: Heparin Affinity) [nM] | also measured
85-99: 15-mer pin-synthesized peptide corresponding to amino acids 85-99 of BPI, with cyclo(lysylprolyl) moiety on the carboxyl-terminus (IKISGKWKAQKRFLK-{cyclo(lysylprolyl)}; UniProt P17213 116-130, looked up, fragment) | – | – | – | – | – | bactericidal activity (in words) [1]: found to have bactericidal activity
A2: Asp-N fragment of rBPI23, residues 15-38 (DYASQQGTAALQKELKRIKIPDYS; Asp-N fragment; UniProt P17213 46-69, looked up, fragment) | – | – | – | – | – | cpm ^3H-Heparin bound [2]: 3,042 ± 162 cpm
A3: Asp-N fragment of rBPI23, residues 39-56 (DSFKIKHLGKGHYSFYSM; UniProt P17213 70-87, looked up, fragment) | – | – | – | – | – | cpm ^3H-Heparin bound [2]: 8,664 ± 128 cpm
Aβ-(1-naphthyl)Aβ-(1-naphthyl)RFLKF ([1Nal][1Nal]RFLKF) [BPI.140] | 605.34 pmol | 9,977.71 pmol | 84.76 pmol | – | – | –
BPI.65(Ox) (CIKISGKWKAQKRFLKC; not fully specified (bridges); also: oxidized) | b (no detectable activity up to 5 μg/well) | 11,960.00 pmol | 849.79 pmol | – | – | –
C2: CNBr fragment of rBPI23, residues 57-70 (DIREFQLPSSQISM; CNBr fragment; UniProt P17213 88-101, looked up, fragment) | – | – | – | – | – | cpm ^3H-Heparin bound [2]: 6,262 ± 182 cpm
C3: CNBr fragment of rBPI23, residues 71-100 (VPNVGLKFSISNANIKISGKWKAQKRFLKM; CNBr fragment; UniProt P17213 102-131, looked up, fragment) | – | – | – | – | – | cpm ^3H-Heparin bound [2]: 81,655 ± 3,163 cpm
C4: CNBr fragment of rBPI23, residues 101-111 (SGNFDLSIEGM; CNBr fragment; UniProt P17213 132-142, looked up, fragment) | – | – | – | – | – | cpm ^3H-Heparin bound [2]: 4,686 ± 4 cpm
C6: CNBr fragment of rBPI23, residues 171-196 (NSQVCEKVTNSVSSELQPYFQTLPVM; CNBr fragment; UniProt P17213 202-227, looked up, fragment) | – | – | – | – | – | cpm ^3H-Heparin bound [2]: 26,204 ± 844 cpm
CIKISGKWKAQKRFLKC [BPI.65 (ox.)] | – | – | – | 190.6 | 160 | –
CIKISGKWKAQKRFLKC [BPI.65 (red.)] | – | – | – | 279.6 | 216 | heparin binding capacity (in words) [2]: extremely high heparin capacity; bactericidal activity (in words) [1]: highly bactericidal
CIKISGKWKAQKRPLC [BPI.57] | b (no detectable activity up to 5 μg/well) | b (no detectable activity up to 5 μg/well) | 514.03 pmol | – | – | –
Cecropin A (KWKLFKKIEKVGQNIRDGIIKAGPAVAVVGQATQIAK; ends and bridges not checked; UniProt P01507 27-63, looked up) [antibacterial peptide of lepidopteran insects (Sigma), reference compound] | – | – | – | 242.0 | 395 | heparin binding capacity [2]: 242 ng heparin/2 μg peptide; Kd [2, 4]: 395 nM
GTAALQKELKRIKIP [BPI.54] | b (no detectable activity up to 5 μg/well) | – | b (no detectable activity up to 5 μg/well) | 64.3 | 237 | heparin binding capacity (in words) [2]: low heparin binding capacity; bactericidal activity (in words) [1]: little or no bactericidal activity
IKISGKAβ-(1-naphthyl)KAAβ-(1-naphthyl)Aβ-(1-naphthyl)RFLK (IKISGK[1Nal]KA[1Nal][1Nal]RFLK) [BPI.122] | 2,123.57 pmol | 2,631,667.24 pmol | 179.89 pmol | – | – | –
IKISGKAβ-(1-naphthyl)KAQAβ-(1-naphthyl)RFLK (IKISGK[1Nal]KAQ[1Nal]RFLK) [BPI.112] | b (no detectable activity up to 5 μg/well) | b (no detectable activity up to 5 μg/well) | 1,485.92 pmol | – | – | –
IKISGKWKAAARFLK [BPI.45] | 4,849.00 pmol | – | 1,301.80 pmol | 160.7 | 153 | –
IKISGKWKAAβ-(1-naphthyl)Aβ-(1-naphthyl)RFLK (IKISGKWKA[1Nal][1Nal]RFLK) [BPI.121] | 1,856.40 pmol | 941,388.07 pmol | 154.35 pmol | – | – | –
IKISGKWKAQERFLK [BPI.136] | b (no detectable activity up to 5 μg/well) | b (no detectable activity up to 5 μg/well) | 18,846.44 pmol | – | – | –
IKISGKWKAQKRWLK [BPI.141] | b (no detectable activity up to 5 μg/well) | b (no detectable activity up to 5 μg/well) | 2,809.51 pmol | – | – | –
IKISGKWKAWKRAβ-(1-naphthyl)LKK (IKISGKWKAWKR[1Nal]LKK) [BPI.105] | 206.98 pmol | 6,260.97 pmol | 65.35 pmol | – | – | –
KSKVGA2-β-(1-naphthyl)LIQLFHKK (KSKVG[1Nal]LIQLFHKK; not fully specified; printed as KSKVGA2-β-(1-naphthyl)LIQLFHKK) [BPI.130] | 4,377.92 pmol | b (no detectable activity up to 5 μg/well) | 325.75 pmol | – | – | –
KSKVGA(pyridyl)LIQLFHKK (KSKVG[Pal]LIQLFHKK; reading uncertain; also: printed as KSKVGA(pyridyl)LIQLFHKK) [BPI.132] | b (no detectable activity up to 5 μg/well) | b (no detectable activity up to 5 μg/well) | 4,505.79 pmol | – | – | –
KSKVGAD-2-β-(1-naphthyl)LIQLFHKK (KSKVG[d1Nal]LIQLFHKK; not fully specified) [BPI.131] | b (no detectable activity up to 5 μg/well) | b (no detectable activity up to 5 μg/well) | 1,438.21 pmol | – | – | –
KSKVWLIQLFHKK [BPI.11] | b (no detectable activity up to 5 μg/well) | – | 638.30 pmol | 290.5 | 744 | –
Limulus anti-LPS factor [LALF, reference compound] | – | – | – | 195.3 | 1290 | heparin binding capacity [2]: 195.3 ng heparin/2 μg peptide; Kd [2, 4]: 1290 nM
Polymyxin B peptide [PMB Peptide, reference compound] | – | – | – | 58.01 | 309 | heparin binding capacity [2]: 58.0 ng heparin/2 μg peptide
SVHVHISKSKVGWLIQLFHKKIESALRNK [BPI.12] | b (no detectable activity up to 5 μg/well) | – | 524.80 pmol | 231.5 | 285 | –
magainin II amide [reference compound] | – | – | – | 453.7 | 3170 | heparin binding capacity [2]: 437.7 ng heparin/2 μg peptide; Kd [2, 4]: 3170 nM

— patent publication US20040023884A1, “Biologically active peptides from functional domains of bactericidal/permeability-increasing protein and uses thereof” (priority 1993, published 2004)
